Data taken from patent US8492394B2, “(3-aryl-piperazin-1-yl), (2-aryl-morpholin-4-yl) and (2-aryl-thiomorpholin-4-yl) derivatives of 6,7-dialkoxy-quinazoline, 6,7-dialkoxyphtalazine and 6,7-dialkoxyisoquinoline as PDE10A enzyme inhibitors” (H. Lundbeck A/S, priority 2006, dated 2013).

Tests used:
PDE10A enzyme = PDE10A enzyme (Homo sapiens (Human), UniProt Q9Y233); test: PDE10A inhibition assay; assay type: biochemical; settings: tritium labeled cAMP 5 nM, SPA; read-out: PDE10 IC50
Procedure: Active PDE10A enzyme is prepared in a number of ways for use in PDE assays (Loughney, K. et al. Gene 1999, 234, 109-117; Fujishige, K. et al. Eur J. Biochem. 1999, 266, 1118-1127 and Soderling, S. et al. Proc. Natl. Acad. Sci. 1999, 96, 7071-7076). PDE10A can be expressed as full-length proteins or as truncated proteins, as long as they express the catalytic domain. PDE10A can be prepared in different cell types, for example insect cells or E. coli. An example of a method to obtain catalytically active PDE10A is as follows: The catalytic domain of human PDE10A (amino acids 440-779 from the sequence with accession number NP 006652) is amplified from total human brain total RNA by standard RT-PCR and is cloned into the BamH1 and Xho 1 sites of the pET28a vector (Novagen). Expression in coli is performed according to standard protocols. Briefly, the expression plasmids are transformed into the BL21 (DE3) E. coli strain, and 50 mL cultures inoculated with the cells allowed to grow to an OD600 of 0.4-0.6 before protein expression is induced with 0.5 mM IPTG. Following induction, the cells are incubated overnight at room temperature, after which the cells are collected by centrifugation. Cells expressing PDE10A are resuspended in 12 mL (50 mM TRIS-HCl-pH8.0, 1 mM MgCl2 and protease inhibitors). The cells are lysed by sonication, and after all cells are lysed, TritonX100 is added according to Novagen protocols.
PDE10A assays have been described previously (Loughney, K. et al. Gene 1999, 234, 109-117; Fujishige, K. et al. Eur J Biochem. 1999, 266, 1118-1127 and Soderling, S. et al. Proc. Natl. Acad. Sci. 1999, 96, 7071-7076). PDE10A assays could for example can be performed as follows: PDE10A assays are performed in 60 uL samples containing a fixed amount of the relevant PDE enzyme (sufficient to convert 20-25% of the cyclic nucleotide substrate), a buffer (50 mM HEPES7.6; 10 mM MgCl2; 0.02% Tween20), 0.1 mg/ml BSA, 225 pCi of ^3H-labelled cyclic nucleotide substrate, tritium labeled cAMP to a final concentration of 5 nM and varying amounts of inhibitors. Reactions are initiated by addition of the cyclic nucleotide substrate, and reactions are allowed to proceed for one hr at room temperature before being terminated through mixing with 15 uL 8 mg/mL yttrium silicate SPA beads (Amersham). The beads are allowed to settle for one hr in the dark before the plates are counted in a Wallac 1450 Microbeta counter. The measured signal can be converted to activity relative to an uninhibited control (100%) and IC50 values can be calculated using the Xlfit extension to EXCEL.

rats [1] = settings: cited from earlier work
rats [2] = settings: cited from earlier work; remark: listed apart in the source
rats [3] = settings: cited from earlier work; remark: listed apart in the source

Sequence of PDE10A enzyme (Q9Y233 716-1055): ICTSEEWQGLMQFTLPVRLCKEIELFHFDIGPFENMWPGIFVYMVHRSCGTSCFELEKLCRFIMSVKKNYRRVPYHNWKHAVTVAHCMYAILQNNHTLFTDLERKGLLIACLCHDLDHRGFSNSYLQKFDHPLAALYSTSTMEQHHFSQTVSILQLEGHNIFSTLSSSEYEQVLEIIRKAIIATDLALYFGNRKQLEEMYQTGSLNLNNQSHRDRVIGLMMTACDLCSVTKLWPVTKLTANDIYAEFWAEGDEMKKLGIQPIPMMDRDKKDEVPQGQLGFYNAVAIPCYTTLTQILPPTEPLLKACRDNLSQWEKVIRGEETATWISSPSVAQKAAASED

Row | SMILES | IC50 (PDE10A enzyme) | further results
1 | COc1cc2ncnc(N3CCSC(c4ccccc4)C3)c2cc1OC (centres unmarked) [Compound 1, 6,7-Dimethoxy-4-(2-phenyl-thiomorpholin-4-yl)-quinazoline] | 89 nM | 
2 | COc1cccc(C2CN(c3ncnc4cc(OC)c(OC)cc34)CCN2)c1 (centres unmarked) [Compound 2, 6,7-Dimethoxy-4-(3-(3-methoxyphenyl)-piperazin-1-yl)-quinazoline] | 33 nM | 
3 | COc1cc2ncnc(N3CCOC(c4ccc(C)cc4)C3)c2cc1OC (centres unmarked) [Compound 3, 6,7-Dimethoxy-4-(2-(4-methylphenyl)-morpholin-4-yl)-quinazoline] | 79 nM | 
4 | COc1cccc([C@@H]2CN(c3ncnc4cc(OC)c(OC)cc34)CCN2)c1 [Compound 4, 6,7-Dimethoxy-4-((R)-3-(3-methoxyphenyl)-piperazin-1-yl)-quinazoline] | 600 nM | 
5 | COc1cccc([C@H]2CN(c3ncnc4cc(OC)c(OC)cc34)CCN2)c1 [Compound 5, 6,7-Dimethoxy-4-((S)-3-(3-methoxyphenyl)-piperazin-1-yl)-quinazoline] | 14 nM | 
6 | COc1cc2ncnc(N3CCN[C@H](c4ccccc4)C3)c2cc1OC [Compound 6, 6,7-Dimethoxy-4-((R)-3-phenyl-piperazin-1-yl)-quinazoline] | 65 nM | 
7 | COc1cc2ncnc(N3CCN[C@@H](c4ccccc4)C3)c2cc1OC [Compound 7, 6,7-Dimethoxy-4-((S)-3-phenyl-piperazin-1-yl)-quinazoline] | 90 nM | 
8 | COc1cc2ncnc(N3CCNC(c4cc(OC)c(OC)c(OC)c4)C3)c2cc1OC (centres unmarked) [Compound 8, 4-[3-(3,4,5-trimethoxyphenyl)-piperazin-1-yl]-6,7-dimethoxy-quinazoline] | 180 nM | 
9 | COc1cc2ncnc(N3CCNC(c4ccccc4OC)C3)c2cc1OC (centres unmarked) [Compound 9, 4-[3-(2-methoxyphenyl)-piperazin-1-yl]-6,7-dimethoxy-quinazoline] | 110 nM | 
10 | COc1cc2ncnc(N3CCOC(c4ccc(F)cc4)C3)c2cc1OC (centres unmarked) [Compound 10, 6,7-Dimethoxy-4-(2-(4-fluorophenyl)-morpholin-4-yl)-quinazoline] | 200 nM | 
11 | COc1cc2ncnc(N3CCOC(c4ccc(Cl)cc4)C3)c2cc1OC (centres unmarked) [Compound 11, 6,7-Dimethoxy-4-(2-(4-chlorophenyl)-morpholin-4-yl)-quinazoline] | 260 nM | 
12 | COc1cc2ncnc(N3CCOC(c4ccc(C(F)(F)F)cc4)C3)c2cc1OC (centres unmarked) [Compound 12, 6,7-Dimethoxy-4-(2-(4-trifluomethylphenyl)-morpholin-4-yl)-quinazoline] | 660 nM | 
13 | COc1cc2ncnc(N3CCOC(c4ccccc4Cl)C3)c2cc1OC (centres unmarked) [Compound 13, 6,7-Dimethoxy-4-(2-(2-chlorophenyl)-morpholin-4-yl)-quinazoline] | 190 nM | 
14 | COc1cc2ncnc(N3CCNC(c4ccc(N(C)C)cc4)C3)c2cc1OC (centres unmarked) [Compound 14, 4-[3-(4-dimethylaminophenyl)-piperazin-1-yl]-6,7-dimethoxy-quinazoline] | 62 nM | 
15 | COc1cc2ncnc(N3CCNC(c4ccc5c(c4)OCO5)C3)c2cc1OC (centres unmarked) [Compound 15, 4-[3-(3,4-methylenedioxyphenyl)-piperazin-1-yl]-6,7-dimethoxy-quinazoline] | 35 nM | 
16 | COc1cc2ncnc(N3CCNC(c4cc(Cl)ccc4Cl)C3)c2cc1OC (centres unmarked) [Compound 16, 4-[3-(2,5-dichlorophenyl)-piperazin-1-yl]-6,7-dimethoxy-quinazoline] | 170 nM | 
17 | COc1ccc(Cc2nccc3cc(OC)c(OC)cc23)cc1OC [Papaverin] |  | reduction of amphetamine induced hyperactivity (rats [1]): insignificant; hyperactivity induced by PCP (rats [2]): reduced hyperactivity; catalepsy on its own (rats [3]; alone): did not cause catalepsy on its own; cataleptic effect of haloperidol (rats [3]; with the D2 receptor antagonist haloperidol): potentiated the cataleptic effect
